The test system of experiment [1] is TP3-T6 (DNA, G4) TGGGGTCCGAGGCGGGGCTTGGG
Description: 1H NMR imino proton titration. Particulars: 70 mM KCl, 20 mM KH2PO4, pH 7.0, 25 °C, H2O/D2O 9:1, DMSO <7%.

The test system is the same in experiment [2]. The experiment in a line: CD melting at 285 nm. The settings on record: 70 mM KCl, 20 mM phosphate, pH 7.1, 2 µM DNA, 6 µM ligand.
For experiment [3] the test system is unchanged. The experiment in a line: ligand fluorescence titration, EQUISPEC multivariate fit. The settings on record: 70 mM KCl, 20 mM potassium phosphate; 20 mM phosphate buffer, pH 7.1, 20 °C, 3 µM ligand.

By ΔTm is commonly meant the shift of the melting midpoint relative to a reference.

With `O=C(c1cc(Cc2n[nH]c(=O)c3ccccc23)ccc1F)N1CCN(C(=O)C2CC2)CC1`, the binding result in experiment [1] (up to R = 2.0, DNA 0.24–0.48 mM) is recorded as “no”.

Take `NC(=O)n1ccc2ccc(-c3ccc(CN4CCCCC4)cc3)nc21`: the ΔTm in experiment [2] (derived from two Tm (60.2 ± 1.0, 59.6 ± 0.8)) came to 0.6 °C. Further, the binding entry in experiment [1] (R up to 2.0, 3'-end tetrad) was “yes”. Moreover, in experiment [3], the Kb is on record as 5.45 ± 0.15 × 10^5 M^-1.

For `C[C@]1(c2nc3c(C(N)=O)cccc3[nH]2)CCCN1`, the ΔTm in experiment [2] (derived from two Tm (58.8 ± 1.3, 59.6 ± 0.8)) is -0.8 °C. Also, in experiment [1] (R up to 2.0, 5'-end tetrad slightly shifted), the binding entry was “weak”. For the same molecule, in experiment [3], the Kb is on record as 5.48 ± 0.16 × 10^5 M^-1.

Take `NC(=O)c1cccc2cn(-c3ccc([C@@H]4CCCNC4)cc3)nc12`: the ΔTm in experiment [2] (derived from two Tm (60.3 ± 1.3, 59.6 ± 0.8)) was 0.7 °C. The binding entry in experiment [1] (R up to 2.0, 3'-end tetrad) is “yes”. Also, the Kb in experiment [3] is 5.24 ± 0.20 × 10^5 M^-1.

These data come from publication PMC8395737 (2021).
